Test results as given in ChEMBL document CHEMBL5137091, “Investigating the Structure-Activity Relationship of 1,2,4-Triazine G-Protein-Coupled Receptor 84 (GPR84) Antagonists” (J Med Chem, 2022).

Target: G-protein coupled receptor 84 (Homo sapiens, UniProt Q9NQS5)
Test: biochemical

G-protein coupled receptor 84, sequence (Q9NQS5 whole entry): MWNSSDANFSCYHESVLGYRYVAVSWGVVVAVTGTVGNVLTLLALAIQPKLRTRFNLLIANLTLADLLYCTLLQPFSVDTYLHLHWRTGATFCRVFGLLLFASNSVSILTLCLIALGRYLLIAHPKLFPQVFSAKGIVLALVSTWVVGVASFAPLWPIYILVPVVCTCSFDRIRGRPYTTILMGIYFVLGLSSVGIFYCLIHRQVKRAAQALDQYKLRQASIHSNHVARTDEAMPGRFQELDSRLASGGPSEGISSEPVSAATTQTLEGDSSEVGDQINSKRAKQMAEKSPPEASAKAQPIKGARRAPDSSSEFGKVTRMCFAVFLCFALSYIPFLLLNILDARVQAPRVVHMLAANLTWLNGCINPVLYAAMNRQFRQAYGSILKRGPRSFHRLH

First: c1ccc(-c2cnc(Cc3c[nH]c4ccccc34)nn2)cc1
Second: c1ccc(-c2cnnc(Cc3c[nH]c4ccccc34)n2)cc1
The IC50 of the first is 1.8-fold lower: 5620 nM for the first, 10200 nM for the second.

First: COC(=O)c1cccc(-c2nc(Cc3c[nH]c4ccccc34)nnc2-c2ccccc2)c1
Second: COC(=O)c1cccc(-c2nnc(Cc3c[nH]c4ccccc34)nc2-c2ccccc2)c1
The IC50 of the first is 3.5-fold higher: 398 nM for the first, 115 nM for the second. The second is the more potent here.

With `c1ccc(-c2nnc(Cc3c[nH]c4ccccc34)nc2-c2ncccn2)cc1` the IC50 was 263 nM.

Test system: not listed separately
Test: Protein binding in mouse plasma assessed as unbound fraction
Type: ADME, cell-free

`c1ccc(-c2nnc(Cc3c[nH]c4ccccc34)nc2-c2ccccc2)cc1` and `c1ccc(-c2nc(Cc3c[nH]c4ccccc34)nnc2-c2ccc(CN3CCOCC3)cc2)cc1` cannot be ordered by fraction unbound: under 0.01 for the first, under 0.01 for the second.
